Here are results for one molecule from patent publication US20220370416A1, “COMPOUNDS AND METHODS FOR TARGETED DEGRADATION OF KRAS” (Arvinas Operations, Inc., priority 2020, published 2022).

Assay [1] has as its target T1, KRAS^G12C (Homo sapiens, UniProt P01116, G12C). As to the kind of experiment: KRAS^G12C degradation in homozygous MIA PaCa-2 cells. The assay is classed as cell-based. More on the design: endogenous in cells; host or cells: MIA PaCa-2. Particulars: homozygous MIA PaCa-2 cells (FIG. 4B).
For assay [2], the target named is T1, KRAS^G12C. As to the kind of experiment: KRAS^G12C degradation by immunoblot in NCI-H23 cells. The assay is classed as cell-based. More on the design: MRTX849-VHL bifunctional compounds engage and degrade endogenous KRAS^G12C in NCI-H2030 cells; endogenous in cells; host or cells: NCI-H2030, NCI-H358, MIA PaCa-2, SW1573, NCI-H23. Here is the method: NCI-H2030 (CRL-5914), MIA PaCa-2 (CRL-1420), NCI-H23 (CRL-5800), NCI-H358 (CRL-5807), and HCT-116 (CCL-247) cells were obtained from ATCC, expanded immediately, and frozen down. Vials were thawed and used within 20 passages. SW1573 cells were a gift from Arvinas and were handled in the same manner. NCI-H2030, NCI-H23, and NCI-H358 were cultured in RPMI (ATCC30-2001) supplemented with 10% FBS (Biological Industries; cat. no. S1480) and 1% Penicillin-Streptomycin (ThermoFisher; cat. no. 15140122). HCT-116 cells were maintained in high glucose DMEM (ThermoFisher; cat. no. 11965084) supplemented as above. MIA PaCa-2 cells were cultured in high glucose DMEM supplemented with 10% FBS, 2.5% horse serum (ThermoFisher; cat. no. 26050-088; lot 2109875), and 1% Penicillin-Streptomycin. SW1573 cells were maintained in DMEM/F12 Nutrient Mix with GlutaMAX supplement (ThermoFisher; cat. no. 10565018) with 10% FBS and 1% Penicillin-Streptomycin added. DPBS (ThermoFisher; cat. no. 14190250) was used to wash cells and 0.25% Trypsin-EDTA (ThermoFisher; cat. no. […]) was used to detach cells for passaging. […] The VHL ligand was generously provided by Arvinas.
Between 2.5×10^5 and 6.0×10^5 cells were seeded into 6-well plates (Corning; cat. no. 353046). The next day, media was removed and cells were treated with 2.5 μM LC-2 for 1, 2, 4, 8, 12, or 24 hours. […] For 24-hour time course experiments, cells were treated at the indicated times and concurrently lysed in RIPA buffer supplemented as described previously. For longer time course experiments and time courses in which cells were treated with LC-2 or LC-2 Epimer, cells were concurrently treated with either compound, then lysed by scraping in RIPA buffer at the indicated time points.
Between 2.5×10^5 and 5.0×10^5 cells were seeded into 6-well plates. The next day cells were pretreated with DMSO, 500 μM or 1 mM VHL ligand, 1 μM epoxomicin, 1 μM […], or 100 nM […] bafilomycin A1 for 1 hour. Media was then removed and cells were treated with DMSO, 2.5 μM LC-2 plus DMSO, 2.5 μM LC-2 Epimer plus DMSO, or co-treated with 2.5 μM LC-2 and the corresponding competitor/inhibitor. H2030 cells were treated for 4 hours and H23 cells were treated for 24 hours, after which cells were lysed by scraping in RIPA buffer supplemented as described previously.
Cell lysates were clarified at 21000×g for 15 mins at 4° C. Protein levels were quantified using a 50:1 mixture of bicinchoninic acid solution (Millipore Sigma; cat. no. B9643) and 4% (w/v) copper(II) sulfate solution (Millipore Sigma; cat. no. C2284) incubated at 37° C. for 30 mins. Absorbance values at 560 nm were read on an EnVision 2101 Multilabel Reader (PerkinElmer). Proteins were separated using 26 well Criterion TGX precast 4-15% (cat. no. 5671085) or 8-16% (cat. no. 5671105) gradient midi gels. After separation, proteins were transferred to nitrocellulose or PVDF membranes at 76 V for 2 hours at 4° C. Blots were then blocked in 5% milk in tris-buffered saline with Tween-20 (TBST; 20 mM Tris, 150 mM NaCl, 0.02% Tween-20). After blocking, blots were incubated in primary antibody overnight (12-18 hours) at 4° C. or for 2 hours at room temperature with mild agitation at the manufacturer's indicated dilution in either 5% milk or 5% BSA in TBST. Blots were then washed thrice with TBST for 5 mins at room temperature. After washing, blots were incubated with 1:5,000-1:10,000 of donkey anti-rabbit (GE Life Sciences; NA934) or sheep anti-mouse (GE Life Sciences; NA931) secondary antibody diluted in 5% milk for 1 hour at room temperature with mild agitation. Blots were again washed thrice with TBST for 5 mins. Chemiluminescent signal was generated using Amersham ECL Prime Western Blotting Detection Reagant (GE Life Sciences; cat. no. RPN2232) or SuperSignal West Femto Maximum Sensitivity Substrate (ThermoFisher; cat. no. 34095). Images were obtained using a Bio-Rad ChemiDoc Imager.
A general note: A western blot detects proteins with antibodies after separation by electrophoresis.

SMILES strings stand for the structures.

`C=C(F)C(=O)N1CCN(c2nc(OC[C@@H]3CCCN3CCCOCCC(=O)N[C@H](C(=O)N3C[C@H](O)C[C@H]3C(=O)NCc3ccc(-c4scnc4C)cc3)C(C)(C)C)nc3c2CCN(c2cccc4cccc(Cl)c24)C3)C[C@@H]1CC#N` [LC-2, (2S,4R)-1-((S)-2-(3-(3-((S)-2-(((7-(8-chloronaphthalen-1-yl)-4-((S)-3-(cyanomethyl)-4-(2-fluoroacryloyl)piperazin-1-yl)-5,6,7,8-tetrahydropyrido[3,4-d]pyrimidin-2-yl)oxy)methyl)pyrrolidin-1-yl)propoxy)propanamido)-3,3-dimethylbutanoyl)-4-hydroxy-N-(4-(4-methylthiazol-5-yl)benzyl)pyrrolidine-2-carboxamide]: the “induction of KRAS^G12C degradation” value on KRAS^G12C [1] was “induces KRAS^G12C”. Besides, the Dmax at KRAS^G12C [2] (NCI-H23) is above 90%. For the same molecule, the “KRAS, two-way ANOVA significance vs DMSO” value on KRAS^G12C [2] (NCI-H23, 0.25 μM, FIG. 9B) is “* (* p < 0.05)”; at KRAS^G12C [2] (NCI-H23, 2.5 μM, 6 hours, FIG. 10B) it was “** (** p < 0.01)”; at KRAS^G12C [2] (NCI-H23, 2.5 μM, 24 hours, FIG. 10B) it was “**** (**** p < 0.001)”; at KRAS^G12C [2] (NCI-H23, 10 μM, FIG. 9B) it was “N.S”. Further, at KRAS^G12C [2] (NCI-H23, 2.5 μM), the “duration of KRAS degradation” value is given as “sustained up to 72 hours”. In addition, the “time at which KRAS^G12C began to rebound” value on KRAS^G12C [2] (NCI-H23, 2.5 μM) was determined as 72 h. The “time to maximal KRAS degradation” value at KRAS^G12C [2] (NCI-H23, 2.5 μM, 6, 24, 48, 72 hours) is at most 24 h. In addition, half-maximal degradation on KRAS^G12C [2] (NCI-H23, heterozygous KRAS^G12C) (DC50) was put at 250 ± 80 nM. At KRAS^G12C [2] (NCI-H23 cells, heterozygous), this molecule returned a KRAS degradation above 50%.

One may read the Dmax as the greatest extent of degradation seen. Read a high Dmax as deep degradation. The DC50 is the midpoint of the concentration-degradation curve.
